Test [1] deals with Adiponectin. Briefly: Measurement of expression level of adiponectin in human adipose-derived mesenchymal stem cells (ELISA). To be noted: for Adiponectin (pg/mL, avg ± S.D.): secreted into culture medium, day 14 of differentiation, together with IDX, sample 60 μM; for effect of increasing adiponectin expression (in words): 60 μM with IDX, day 14, Table 1. Format: cell-based. The protocol:
Adiponectin is a representative protein hormone secreted in adipocytes. It is reported that the expression of adiponectin is increased with the differentiation into adipocytes. Accordingly, the amount of adiponectin secreted into a cell culture medium was measured as a marker of promotion of adipocyte differentiation. In order to measure the secreted amount of adiponectin, human adipose-derived mesenchymal stem cells purchased form Lonza, Inc. were gathered on day 14 after they began to differentiate into adipocytes and the amount of adiponectin was quantified using an adiponectin ELISA kit (R&D Systems, Cat. No. DY1065) as follows (Data were normalized to that of the control group). Specifically, after reacting with a capture antibody on a 96-well plate and washing with a washing buffer, the cells were treated with a sample at a concentration of 60 μM and incubated at room temperature for 2 hours. Subsequently, the cells were incubated with a detection antibody, HRP, a substrate solution and a stop solution for the time specified in the protocol, while washing 3 times between each step. After the final incubation, absorbance was measured at 450 nm using a spectrophotometer.

Test [2] deals with Human adipose-derived mesenchymal stem cells (hAT-MSCs). Briefly: Inducement of differentiation of adipose-derived mesenchymal stem cells into adipocytes (Oil Red O staining). It counts as cell-based. The settings on record: day 14. An excerpt: Human adipose-derived mesenchymal stem cells (hAT-MSCs) were purchased form Lonza, Inc. (Walkersville, Md., USA) and cultured according to the instructions of Lonza, Inc. The adipose-derived mesenchymal stem cells were induced to differentiate into adipocytes according to the instructions of Lonza, Inc. except that troglitazone (TRO) was used instead of indomethacin. Specifically, the mesenchymal stem cells were differentiated into adipocytes by adding to a culture of the mesenchymal stem cells […] insulin, 1 µM dexamethasone (DEXA), 0.5 mM isobutylmethylxanthine (IBMX) and […] TRO. To a test group, the compound of Example 1 was added to the medium at a concentration of 30 μM when inducing the differentiation into adipocytes. A positive control group was treated with 30 μM glibenclamide together with IDX. On day 14 after the adipose-derived mesenchymal stem cells began to differentiate into adipocytes, the cells were washed with 10 mL of phosphate-buffered saline (PBS) and then fixed for 10 minutes using a 10% formalin/PBS solution (0.2 mL/cm^2). The fixed cells were washed once with a 60% isopropanol solution (0.5 mL/cm^2) and lipid bodies in the adipocytes were stained for 10 minutes with Oil Red O dissolved in 60% isopropanol (0.2 mL/cm^2). Then, after staining again with hematoxylin to visualize nuclei, the cells were observed under a microscope.

In the case of `COc1ccc(Cl)cc1C(=O)NCCc1ccc(S(=O)(=O)NC(=O)NC2CCCCC2)cc1` [glibenclamide, reference compound], the “Adiponectin (pg/mL, avg ± S.D.)” value in test [1] came to 1832 ± 110 pg/mL.

Take `O=C(/C=C/c1ccc2c(c1)OCCO2)OCc1cc(=O)c(O)co1` [Example 2, (2E)-(5-hydroxy-4-oxo-4H-pyran-2-yl)methyl 3-(2,3-dihydroxybenzo[b][1,4]dioxo-7-yl)acrylate]: in test [1], the “effect of increasing adiponectin expression (in words)” value is “increased the expression of adiponectin” and the “Adiponectin (pg/mL, avg ± S.D.)” value was 1300 ± 140 pg/mL.

In the case of `O=c1cc(CO)occ1O` [kojic acid, reference compound], in test [1], the “effect of increasing adiponectin expression (in words)” value is “did not show an effect of increasing adiponectin expression” and the “Adiponectin (pg/mL, avg ± S.D.)” value came to 312 ± 103 pg/mL.

As for `O=C(/C=C/c1ccc2c(c1)OCO2)OCc1cc(=O)c(O)co1` [Example 1, (2E)-(5-hydroxy-4-oxo-4H-pyran-2-yl)methyl 3-(benzo[d][1,3]dioxo-6-yl)acrylate], the “differentiation into adipocytes as compared to treatment with IDX only” value in test [2] (30 μM added to medium when inducing differentiation, Oil Red O staining, microscope (FIG. 1)) is “increased differentiation into adipocytes”. Further, in test [2] (30 μM, Oil Red O staining (FIG. 1)), the “number of the stained cells compared with glibenclamide as positive control” value is reported as “slightly less”. In test [1], the “effect of increasing adiponectin expression (in words)” value was “increased the expression of adiponectin” and the “Adiponectin (pg/mL, avg ± S.D.)” value came out at 1435 ± 113 pg/mL.

The record behind these values is patent US10251862B2, “Cosmetic composition containing hydroxy pyranone derivative compound for promoting differentiation of adipocytes” (AMOREPACIFIC CORPORATION, priority 2014, dated 2019).
